Source: patent US20250326765A1, “PDE4B INHIBITOR AND USE THEREOF” (XIZANG HAISCO PHARMACEUTICAL CO., LTD., priority 2022, published 2025)
Read-outs that look alike come from different tables or passages of the source.

What was measured:
PDE4B2 = target: T1, PDE4B2 (Homo sapiens, UniProt Q07343); assay: Effect of compounds on PDE4B2 activity (fluorescence polarization kit); format: biochemical
T1 construct: purchased BPS Bioscience 60343
Procedure: The effect of compounds on PDE4B2 activity was detected by a fluorescence polarization kit (BPS Bioscience, Catalog #60343). According to the instructions of the kit, FAM-Cyclic-3′,5′-AMP at a final concentration of […], 1 ng/well of PDE4B2 (PDE buffer was added to the negative control well), and a compound diluted in a gradient manner (PDE buffer containing 10% DMSO was added to the positive control well) were added to each well, fully mixed, and then reacted at room temperature for 1 h. The Binding Agent was diluted with the Binding Agent Diluent (cAMP) at a ratio of 1:100 for later use, the Binding Agent dilution was taken and added to the test plate at 50 μl/well and incubated at room temperature with slow shaking for 20 minutes. After the incubation was complete, Envision was used for FP detection, with Excitation at 480 nm and Emission at 535 nm. FP was usually represented by mP value.
[formula] • I∥ (S535): fluorescence intensity in parallel direction • I⊥ (P535): fluorescence intensity in perpendicular direction • G: G factor=1
(§1) [formula] • mP(sample): mP of the test compound in a reaction well • mP(negative control): mP in the negative control well • mP(positive control): mP in the positive control well
(§2) According to the calculated inhibition rate at each concentration, the IC50 value of each compound was calculated by GraphPad Prism 8 software.

PDE4D2 = target: T2, PDE4D2 (Homo sapiens, UniProt Q08499); assay: Effect of compounds on PDE4D2 activity (fluorescence polarization kit); format: biochemical; settings: class symbols
T2 construct: purchased BPS Bioscience 60345
T2 sequence (Q08499 303-809): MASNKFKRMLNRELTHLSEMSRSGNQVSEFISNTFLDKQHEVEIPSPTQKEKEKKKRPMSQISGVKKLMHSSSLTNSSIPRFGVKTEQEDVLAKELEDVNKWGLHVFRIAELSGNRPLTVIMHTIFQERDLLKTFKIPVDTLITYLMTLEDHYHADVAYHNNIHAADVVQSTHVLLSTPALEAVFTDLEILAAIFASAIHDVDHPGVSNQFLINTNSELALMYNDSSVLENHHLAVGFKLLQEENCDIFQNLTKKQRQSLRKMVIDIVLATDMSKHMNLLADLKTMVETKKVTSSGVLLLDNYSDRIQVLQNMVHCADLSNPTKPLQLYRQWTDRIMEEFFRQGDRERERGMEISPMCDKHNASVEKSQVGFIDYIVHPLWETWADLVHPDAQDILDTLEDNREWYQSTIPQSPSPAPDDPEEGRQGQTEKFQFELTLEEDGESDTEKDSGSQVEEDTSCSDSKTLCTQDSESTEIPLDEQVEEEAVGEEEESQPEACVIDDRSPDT
Procedure: The effect of compounds on PDE4D2 activity was detected by a fluorescence polarization kit (BPS Bioscience, Catalog #60345). During the reaction, 12.5 μL of 0.272 ng/well of an enzyme (final concentration: 0.068 ng/well) and 12.5 μL of the compound diluted in a gradient manner (DMSO concentration: 4%) were first pre-incubated at room temperature for 15 minutes, the same volume of the enzyme at the same concentration and 12.5 μL of PDE buffer containing 4% DMSO were added to the positive control well, and 25 μL of PDE buffer containing 2% DMSO was added to the negative control well. After completion, 25 μL of […] FAM-Cyclic-3′,5′-AMP (final concentration: […]) was added to each well, fully mixed, and then incubated at room temperature with slow shaking for 30 minutes. The Binding Agent was diluted with the Binding Agent Diluent (cAMP) at a ratio of 1:100 for later use, 100 μl/well of the Binding Agent dilution was taken and added to all wells of the test plate and incubated at room temperature with slow shaking for 1 hour.
After the incubation was complete, BMG LRBTECH microplate reader was used for FP detection, with Excitation at 485 nm and Emission at 520 nm. FP was usually represented by mP value.
[formula] • I∥ (S520): fluorescence intensity in parallel direction • I⊥ (P520): fluorescence intensity in perpendicular direction • G: G factor=1
as §1, §2

PDE4B1 = target: T3, PDE4B1 (Homo sapiens, UniProt Q07343); assay: Effect of compounds on PDE4B1 activity (IMAP fluorescence polarization kit); format: biochemical; settings: class symbols
T3 construct: purchased BPS 60041
T3 sequence (Q07343 whole entry): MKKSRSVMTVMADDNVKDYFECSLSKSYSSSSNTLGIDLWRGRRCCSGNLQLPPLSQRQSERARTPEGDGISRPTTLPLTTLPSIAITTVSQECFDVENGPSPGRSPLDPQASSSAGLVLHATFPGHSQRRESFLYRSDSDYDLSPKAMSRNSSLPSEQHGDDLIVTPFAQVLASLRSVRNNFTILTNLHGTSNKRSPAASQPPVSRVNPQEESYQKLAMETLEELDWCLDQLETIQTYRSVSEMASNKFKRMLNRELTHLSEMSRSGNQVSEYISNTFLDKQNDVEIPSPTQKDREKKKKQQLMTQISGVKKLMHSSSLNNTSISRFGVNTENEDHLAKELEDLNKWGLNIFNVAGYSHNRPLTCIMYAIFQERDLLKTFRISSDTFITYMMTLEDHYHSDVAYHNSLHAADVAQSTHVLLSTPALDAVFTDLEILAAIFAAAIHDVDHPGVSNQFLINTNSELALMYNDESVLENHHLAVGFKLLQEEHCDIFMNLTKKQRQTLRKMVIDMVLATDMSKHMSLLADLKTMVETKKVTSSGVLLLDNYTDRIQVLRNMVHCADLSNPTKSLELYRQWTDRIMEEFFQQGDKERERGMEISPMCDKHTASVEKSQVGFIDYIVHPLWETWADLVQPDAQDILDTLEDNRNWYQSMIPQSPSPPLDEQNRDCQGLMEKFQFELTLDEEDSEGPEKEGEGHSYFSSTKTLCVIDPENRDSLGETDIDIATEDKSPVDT
Procedure: The IMAP Reaction Buffer containing 0.1% BSA (5×) in the kit was diluted into a 1-fold reaction buffer containing 1 mM DTT. 0.12 nM PDE4B1 (BPS, Cat #60041) was added to the 1-fold reaction buffer to form a 2-fold enzyme solution. 10 μL of the 2-fold enzyme solution was added to wells of a 384-well reaction plate. For the negative control well, 10 μL of the 1-fold reaction buffer was used instead of the enzyme solution. Centrifugation at 1000 rpm for 1 minute and incubation at room temperature for 15 minutes were carried out. 0.2 uM FAM-labeled cAMP (FAM-cAMP, Molecular Device, Cat #R7506) was added to the 1-fold reaction buffer to form a 2-fold substrate solution. 10 μL of the 2-fold substrate solution was added to each well of the 384-well reaction plate. Centrifugation at 1000 rpm for 1 minute was carried out. A reaction was carried out at room temperature for 20 minutes. IMAP Progressive Binding Buffer A (5×), IMAP Progressive Binding Buffer B (5×), and IMAP Progressive Binding Reagent (provided by IMAP FP IPP Explorer Kit) were prepared into a reaction stop solution according to the instructions for use. 60 μL of an […] reaction stop solution was added to each well of the 384-well reaction plate to stop the reaction, and the reaction product was centrifuged at 1000 rpm for 1 minute. Incubation at room temperature in the dark for 60 minutes was carried out. The mP values (Ex480/Em535 (s), Em535 (p)) were read by a microplate reader (Envision).
FP was usually represented by mP value. mP value for FP measurement=1000*(S−G*P)/(S+G*P) • S: fluorescence intensity in parallel direction • P: fluorescence intensity in perpendicular direction • G: G factor=1
as §1
According to the calculated inhibition rate at each concentration, the IC50 value of each compound was calculated by XLFit excel add-in version 5.4.0.8 software.
Y=Bottom+(Top−Bottom)/(1+(IC50/X)^HillSlope) Fitting formula: […]

[1] = Pharmacokinetic test in mice; format: in vivo, ICR mice; settings: for AUC(0-t) / clearance / half-life / Vd: male, ICR, mouse, plasma; for Vd: read-out: Vdss
Procedure: 5.1 Experimental animals: Male ICR mice, 20-25 g, 6 mice/compound. Purchased from Chengdu Ddossy Experimental Animals Co., Ltd.
5.2 Experimental design: On the day of the experiment, 42 ICR mice were randomly grouped according to their body weights. The animals were fasted with water available for 12-14 h one day before administration and fed 4 h after administration.
Before and after administration, 0.06 mL of blood was taken from the orbit under isoflurane anesthesia and placed in an EDTAK2 centrifuge tube for centrifugation at 5000 rpm at 4-C for 10 min, followed by plasma collection. The blood collection time points for the intravenous group and intragastric group were both 0 m, 5 mi, 15 mi, 30 mi, 1 h, 2 h, 4 h, 6 h, 8 h, and 24 h. Before analysis and detection, all the samples were stored at −80° C., and the samples were subjected to quantitative analysis using LC-MS/MS.

[2] = Pharmacokinetic test in beagle dogs; format: in vivo
Procedure: 6.1 Experimental animals: male beagle dogs, about 8-11 kg, 6 beagle dogs/compound, purchased from Beijing Marshall Biotechnology Co., Ltd.
6.2 Experimental method: On the day of the experiment, 18 beagle dogs were randomly grouped according to their body weights. The animals were fasted with water available for 12-14 h one day before administration and fed 4 h after administration. Administration was carried out according to Table 8.
Before and after administration, 1 ml of blood was taken from the jugular vein or limb vein and placed in an EDTAK2 centrifuge tube. Centrifugation was carried out at 5000 rpm at 4° C. for 10 min, and plasma was collected. The blood collection time points for the intravenous group and intragastric group were both 0 min, 5 min, 15 min, 30 min, 1 h, 2 h, 4 h, 6 h, 8 h, 10 h, 12 h, 24 h, 48 h, and 72 h. Before analysis and detection, all the samples were stored at −80° C., and the samples were subjected to quantitative analysis using LC-MS/MS.

[3] = Inhibition of LPS-induced TNF-α release from human peripheral blood mononuclear cells in vitro; format: cell-based; settings: PBMC, hPBMC, 100 ng/mL LPS, 4 h
Procedure: Normal human peripheral blood which was anticoagulated (citric acid anticoagulation) was collected, and hPBMCs were prepared by Ficoll-Paque PLUS (Cytiva, Cat #17144002, density 1.077 g/mL). The concentration of hPBMC cells was adjusted to 0.25×10^6 cells/mL with RPMI1640 medium and inoculated into a 96-well plate in an amount of 50000 cells per well. Subsequently, different concentrations of drugs were added for pre-incubation for 1 h (the DMSO final concentration was 0.1%, and the positive and negative control wells had the same volume of RPMI1640 containing 0.1% DMSO). After the pre-incubation was complete, 100 ng/mL LPS (SIGMA, L2630) was added to the compound and positive control wells, and the negative control well had the same volume of RPMI1640 containing 0.1% DMSO. Incubation was carried out for 4 h in an incubator at 37° C. and 5% CO2. The cell supernatant was collected, and the content of TNF-α in the supernatant sample was detected by human TNF-α Elisa quantitative test kit (Sino Biological, Cat #KIT10602). The IC50 value was calculated using GraphPad Prism software.

[4] = class symbols, read-out: PDE4B2 IC50
[5] = male, dog, iv, plasma, i.v. (1 mg/kg)
[6] = male, dog, po, plasma, i.g. (5 mg/kg)

T1 sequence (Q07343 1-564 isoform Q07343-2): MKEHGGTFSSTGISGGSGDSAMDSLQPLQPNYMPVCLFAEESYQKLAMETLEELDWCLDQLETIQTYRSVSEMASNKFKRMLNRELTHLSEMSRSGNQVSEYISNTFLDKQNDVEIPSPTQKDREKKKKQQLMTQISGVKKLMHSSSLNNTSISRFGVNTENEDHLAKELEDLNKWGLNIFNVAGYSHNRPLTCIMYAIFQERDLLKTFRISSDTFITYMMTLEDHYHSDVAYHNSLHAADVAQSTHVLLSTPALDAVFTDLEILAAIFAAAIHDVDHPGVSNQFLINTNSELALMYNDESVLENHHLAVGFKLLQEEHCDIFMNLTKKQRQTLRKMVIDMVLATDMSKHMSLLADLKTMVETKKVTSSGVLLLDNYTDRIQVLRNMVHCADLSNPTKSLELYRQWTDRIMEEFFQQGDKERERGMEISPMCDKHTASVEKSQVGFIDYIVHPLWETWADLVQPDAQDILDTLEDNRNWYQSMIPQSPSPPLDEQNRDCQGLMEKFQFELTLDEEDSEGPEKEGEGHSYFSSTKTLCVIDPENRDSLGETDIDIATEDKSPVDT

SMILES | IC50 (PDE4B2; [4]) [nM] | IC50 (PDE4D2) [nM] | IC50 (PDE4B1) [nM] | further results
[O-][S+]1CCc2nc(N3CC4C(C3)C4c3ccc(Cl)cc3)nc(NC3(CO)CCC3)c21 (stereo not drawn) [Compound 20] | 10 to 50 | < 10 | < 10 | –
[O-][S@+]1CCc2nc(N3CC=C(c4ncc(Cl)cn4)CC3)nc(NC3(CO)CCC3)c21 [Compound 28] | – | < 10 | < 10 | F ([1]; i.g. (10 mg/kg)): 71.4 ± 11%; AUC(0-t) ([1]; iv, i.v. (5 mg/kg)): 9210 ± 2070 ng·h/mL; clearance ([1]; iv, i.v. (5 mg/kg)): 4.67 ± 1.2 mL/min/kg; half-life ([1]; iv, i.v. (5 mg/kg)): 3.59 ± 0.19 h; Vd ([1]; iv, i.v. (5 mg/kg)): 1.31 ± 0.28 L/kg; AUC(0-t) ([1]; po, i.g. (10 mg/kg)): 26300 ± 4150 ng·h/mL; half-life ([1]; po, i.g. (10 mg/kg)): 7.04 ± 1.8 h
[O-][S@+]1CCc2nc(N3C[C@H]4CN(c5ncc(Cl)cn5)C[C@H]4C3)nc(NC3(CO)CCC3)c21 [Compound 25] | 10 to 50 | < 10 | < 10 | –
[O-][S@+]1CCc2nc(N3C[C@H]4CC[C@@H](C3)[C@@H]4c3ccc(Cl)cc3)nc(NC3(CO)CCC3)c21 [Compound 22] | 10 to 50 | 10 to 50 | 10 to 50 | –
[O-][S+]1CCc2nc(N3CCC4=C(COc5cc(Cl)ccc54)C3)nc(NC3(CO)CCC3)c21 (stereo not drawn) [Compound 29] | – | < 10 | < 10 | –
Cc1nnc(C2=CCN(c3nc4c(c(NC5(CO)CCC5)n3)[S@+]([O-])CC4)CC2)o1 [Compound 55] | < 10 | < 10 | – | IC50 ([3]; class symbols, read-out: Re IC50 (nM) (relative IC50), TNF-α induced by LPS): 10 to 50 nM; Emax ([3]; read-out: Max inhibition (%)): 67.2%

More lines, main results first:

IC50 (PDE4B2; [4]) [nM] | IC50 (PDE4D2) [nM] | IC50 (PDE4B1) [nM] | SMILES | further results
– | < 10 | < 10 | [O-][S@+]1CCc2nc(N3CCC=C(c4ccc5c(c4)CC5)CC3)nc(NC3(CO)CCC3)c21 [Compound 27] | –
– | < 10 | < 10 | [O-][S@+]1CCc2nc(N3CC=C(c4ccc5c(c4)CC5)CC3)nc(NC3(CO)CCC3)c21 [Compound 26] | –
< 10 | < 10 | – | [O-][S@+]1CCc2nc(N3CCC=C(c4ccc(Cl)cc4)CC3)nc(NC3(CO)CCC3)c21 [Compound 5] | F ([1]; i.g. (10 mg/kg)): 91.9 ± 7.5%; AUC(0-t) ([1]; iv, i.v. (5 mg/kg)): 7400 ± 1110 ng·h/mL; clearance ([1]; iv, i.v. (5 mg/kg)): 5.71 ± 0.86 mL/min/kg; half-life ([1]; iv, i.v. (5 mg/kg)): 2.72 ± 0.23 h; Vd ([1]; iv, i.v. (5 mg/kg)): 1.31 ± 0.12 L/kg; AUC(0-t) ([1]; po, i.g. (10 mg/kg)): 27200 ± 2230 ng·h/mL; half-life ([1]; po, i.g. (10 mg/kg)): 3.42 ± 0.16 h; IC50 (PDE4B2; values in text, read-out: IC50 against PDE4B2): 8.1 nM; F ([2]; i.g. (5 mg/kg)): ≥98%; AUC(0-t) [2, 5]: 1200 ± 210 ng·h/mL; clearance [2, 5]: 13.8 ± 2.3 mL/min/kg; half-life [2, 5]: 3.91 ± 0.037 h; Vd ([2]; male, dog, iv, plasma, i.v. (1 mg/kg), read-out: Vdss): 4.16 ± 0.76 L/kg; AUC(0-t) [2, 6]: 5020 ± 1700 ng·h/mL; half-life [2, 6]: 6.32 ± 2.1 h
– | < 10 | < 10 | [O-][S+]1CCc2nc(N3CC=C(c4c(F)cc(Cl)cc4F)CC3)nc(NC3(CO)CCC3)c21 (stereo not drawn) [Compound 35] | –
– | – | < 10 | CC1=C(c2ccc(Cl)cc2)CCN(c2nc3c(c(NC4(CO)CCC4)n2)[S+]([O-])CC3)C1 (stereo not drawn) [Compound 36] | –
